The values below come from patent EP0447812B1, “Use of a dihydropyridine to improve the inner ear blood circulation” (FUJISAWA PHARMACEUTICAL CO., LTD., priority 1990, dated 1991).

For one assay, the system named is Rats. The experiment in a line: Test 2: Rose Bengal/green light photoillumination of the oval window, nystagmus test and swimming test for imbalance 24 hours later. The assay is classed as in vivo. As to conditions: 0.03 mg/kg intravenously at the beginning of photoillumination, 12 animals, dosage 0: 100 %. On the procedure: Rats were anesthetized with pentobarbital, and with the body temperature maintained at 37°C with a heating pad, an aqueous solution of Rose Bengal was continuously infused into the femoral vein. The […] was then opened and the tympanic membrane, incus and malleus were removed taking care not to impair the inner ear.
Using a Hamamatsu Photonic xenon lamp, the oval window was irradiated with a green light of 540 nm via an optical fiber. Using a manipulator, the end of the fiber was fixed about 3 mm from the lateral wall of the cochlea.
Photoillumination was started 20 minutes after the beginning of Rose Bengal infusion and a solution of the test compound in polyethylene glycol (400)-water (1:1, v/v) was intravenously administered at the beginning of photoillumination. After 40 minutes of irradiation, both the photoillumination and Rose Bengal infusion were terminated, the wound was sutured, and the animal was allowed to regain consciousness. At 24 hours after termination of photoillumination, a nystagmus test and a swimming test for imbalance were performed.

The next assay deals with Male Wistar rats. The experiment in a line: Test 1: Rose Bengal/green light photo-illumination of the cochlear lateral wall, compound action potential (CAP) recorded by electrocochleography. Type of assay: in vivo. As to conditions: 0.3 mg/kg injected intravenously 10 minutes prior to photo-illumination; 6 animals; vehicle only 12.0 min. As for the experimental part:
Male Wistar rats (body weights 240 - 260 g) were anesthetized with pentobarbital. After tracheotomy, the animals were artificially ventilated with a Harvard 683 respirator. A solution of Rose Bengal (RB) in saline (10 mg/ml) was infused into the femoral vein at a speed of 24 µmoles/kg per hour. After initiation of Rose Bengal infusion, the left middle ear was opened and, for electrocochleography, the round window lead electrode was fixed in position. Thus, after incision of the skin and muscle of the neck region, the tympanic cavity was drilled with a miniature drill and a silver ball electrode was placed on the round window membrane for use as an active electrode. An indifferent electrode was placed in the middle of the back of the head. Thirty minutes after initiation of Rose Bengal infusion, the lateral wall of the cochlea was irradiated with a green light (540 nm) conducted from a light source (L-3306-01A, Hamamatsu Photonics) through an optical fiber. Using a manipulator, the free end of the optical fiber was fixed about 5 mm away from the lateral wall of the cochlea. In this arrangement, the compound action potential (CAP) was recorded at 1-minute intervals. The electrocochleogram was recorded with Nihon Kohden Neuropack II by averaging 128 clicks of 8 kHz at a sound pressure level of 100 dB. […]

Turning to `COC(=O)C1=C(C#N)NC(C)=C(C(=O)OC(C)C)C1c1cccc([N+](=O)[O-])c1` (stereo not drawn) [dihydropyridine compound A, Isopropyl 6-cyano-5-methoxycarbonyl-2-methyl-4-(3-nitrophenyl)-1,4-dihydropyridine-3-carboxylate], in the assay on Rats (swimming test 24 hours after termination of photoillumination), the “Incidence (%) imbalance” value was found to be 58.3%. Besides, the “Incidence (%) Nystagmus” value in the assay with Rats (tested 24 hours after termination of photoillumination) is 58.3%. Further, the “Action potential disappearance time” value in the assay with Male Wistar rats stood at 14.5 min.
